Consider seven molecules from patent publication US20210323977A1, “PYRROLIDINYL AMIDE COMPOUNDS FOR THE TREATMENT OF AUTOIMMUNE DISEASE” (Hoffmann-La Roche Inc., priority 2018, published 2021).

The target of the test is T1, human TLR9 (Homo sapiens, UniProt Q9NR96).
T1 sequence (Q9NR96 26-1032): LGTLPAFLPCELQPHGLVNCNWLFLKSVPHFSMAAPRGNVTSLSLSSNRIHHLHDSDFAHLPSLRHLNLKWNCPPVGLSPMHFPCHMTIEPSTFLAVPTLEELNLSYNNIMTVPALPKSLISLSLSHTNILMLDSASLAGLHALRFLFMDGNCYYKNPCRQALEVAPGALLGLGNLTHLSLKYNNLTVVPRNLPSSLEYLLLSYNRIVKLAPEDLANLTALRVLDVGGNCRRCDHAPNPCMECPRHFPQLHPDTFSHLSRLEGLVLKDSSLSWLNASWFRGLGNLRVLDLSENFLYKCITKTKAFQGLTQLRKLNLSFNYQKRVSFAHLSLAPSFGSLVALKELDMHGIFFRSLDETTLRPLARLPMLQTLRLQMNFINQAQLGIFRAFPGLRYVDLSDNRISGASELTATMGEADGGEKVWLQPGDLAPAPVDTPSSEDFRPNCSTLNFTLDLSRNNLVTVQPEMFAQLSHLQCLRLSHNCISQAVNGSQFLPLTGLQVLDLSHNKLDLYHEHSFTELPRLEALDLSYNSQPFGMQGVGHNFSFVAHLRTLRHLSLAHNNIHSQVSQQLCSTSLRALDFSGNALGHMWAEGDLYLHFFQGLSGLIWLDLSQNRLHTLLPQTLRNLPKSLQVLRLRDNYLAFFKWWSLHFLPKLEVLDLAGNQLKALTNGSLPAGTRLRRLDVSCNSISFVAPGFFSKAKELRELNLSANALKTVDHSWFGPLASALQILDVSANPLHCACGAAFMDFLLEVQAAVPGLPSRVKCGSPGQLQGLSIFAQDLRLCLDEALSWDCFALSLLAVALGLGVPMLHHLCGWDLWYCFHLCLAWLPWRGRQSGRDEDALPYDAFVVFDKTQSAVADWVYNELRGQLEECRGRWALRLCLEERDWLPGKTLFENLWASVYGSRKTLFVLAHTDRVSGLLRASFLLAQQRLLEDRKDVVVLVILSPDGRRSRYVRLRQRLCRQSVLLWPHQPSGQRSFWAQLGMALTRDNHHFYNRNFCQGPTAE
The test is described as follows: HEK293-Blue-hTLR-9 cells assay. The class given is cell-based. Particulars: HEK293-Blue-hTLR9 cells, SEAP reporter, ODN2006 stimulation, 20 hrs. The source says:
HEK293-Blue-hTLR-9 Cells Assay:
A stable HEK293-Blue-hTLR-9 cell line was purchased from InvivoGen (Cat. #: hkb-htlh9, San Diego, Calif., USA). These cells were originally designed for studying the stimulation of human TLR9 by monitoring the activation of NF-κB. A SEAP (secreted embryonic alkaline phosphatase) reporter gene was placed under the control of the IFN-β minimal promoter fused to five NF-κB and AP-1-binding sites. The SEAP was induced by activating NF-κB and AP-1 via stimulating HEK-Blue hTLR9 cells with TLR9 ligands. Therefore the reporter expression was declined by TLR9 antagonist under the stimulation of a ligand, such as ODN2006 (Cat. #: tlrl-2006-1, Invivogen, San Diego, Calif., USA), for incubation of 20 hrs. The cell culture supernatant SEAP reporter activity was determined using QUANTI-Blue™ kit (Cat. #: rep-qb1, Invivogen, San Diego, Calif., USA) at a wavelength of 640 nm, a detection medium that turns purple or blue in the presence of alkaline phosphatase.
HEK293-Blue-hTLR9 cells were incubated at a density of 250,000-450,000 cells/mL in a volume of 170 μL in a 96-well plate in Dulbecco's Modified Eagle's medium (DMEM) containing 4.5 g/L glucose, 50 U/mL penicillin, […], […], 2 mM L-glutamine, 10% (v/v) heat-inactivated fetal bovine serum with addition of 20 sL test compound in a serial dilution in the presence of final DMSO at 1% and 10 sL of 20 uM ODN2006 in above DMEM, perform incubation under 37° C. in a CO2 incubator for 20 hrs. Then 20 sL of the supernatant from each well was incubated with 180 μL Quanti-blue substrate solution at 37° C. for 2 hrs and the absorbance was read at 620-655 nm using a spectrophotometer. The signalling pathway that TLR9 activation leads to downstream NF-x3B activation has been widely accepted, and therefore similar reporter assay was modified for evaluating TLR9 antagonist.
As to `C[C@H]1CN(c2ccc(C#N)c3ncccc23)C[C@@H]1C(=O)NC1CCN(C)CC1` [Example 16, (3R,4R)-1-(8-cyano-5-quinolyl)-4-methyl-N-(1-methyl-4-piperidyl)pyrrolidine-3-carboxamide], half-maximal inhibition (IC50) was put at 4.6 µM.
The result for `N#Cc1ccc(N2C[C@@H](C(F)(F)F)[C@H](C(=O)N[C@H]3CNC[C@H]3F)C2)c2cccnc12` [Example 47, Trans-1-(8-cyano-5-quinolyl)-N-[(3S,4R)-4-fluoropyrrolidin-3-yl]-4-(trifluoromethyl)pyrrolidine-3-carboxamide] reads 23.1 µM.
The result for `CN1CCC(NC(=O)[C@@H]2CN(c3ccc(C#N)c4ncccc34)C[C@H]2C(F)(F)F)CC1` (relative stereo) [Example 17, Trans-1-(8-cyano-5-quinolyl)-N-(1-methyl-4-piperidyl)-4-(trifluoromethyl)pyrrolidine-3-carboxamide] reads 1 µM; that for `N#Cc1ccc(N2C[C@H](C(=O)NC3CCN(C4CCNCC4)CC3)[C@@H](C(F)(F)F)C2)c2nccnc12` [Example 35, (3R,4R)-1-(8-Cyanoquinoxalin-5-yl)-N-[1-(4-piperidyl)-4-piperidyl]-4-(trifluoromethyl)pyrrolidine-3-carboxamide], 4.3 µM.
As for `C[C@H]1CN(c2ccc(C#N)n3nccc23)C[C@@H]1C(=O)NC1CCN(C)CC1` [Example 44, (3R,4R)-1-(7-cyanopyrazolo[1,5-a]pyridin-4-yl)-4-methyl-N-(1-methyl-4 piperidyl)pyrrolidine-3-carboxamide], the IC50 – broadly, the concentration at which inhibition is half-maximal – came out at 9.1 µM.
Take `C[C@@H]1CN(c2ccc(C#N)c3ncccc23)C[C@H]1C(=O)N1CCC2(CCNC2)C1` (relative stereo) [Example 53, Trans-5-[3-(2,7-diazaspiro[4.4]nonane-2-carbonyl)-4-methyl-pyrrolidin-1-yl]quinoline-8-carbonitrile]: the IC50 was found to be 2.6 µM.
Consider `CN(C)CC1CC(NC(=O)C2CN(c3ccc(C(F)(F)F)c4nccnc34)CC23CC3)C1` (stereo not shown) [Example 26, N-[3-[(dimethylamino)methyl]cyclobutyl]-5-[8-(trifluoromethyl)quinoxalin-5-yl]-5-azaspiro[2.4]heptane-7-carboxamide], for which the IC50 came out at 11.5 µM.
